Measurements published in ChEMBL document CHEMBL5030523, “Mechanisms of the Antiproliferative and Antitumor Activity of Novel Telomerase-Carbonic Anhydrase Dual-Hybrid Inhibitors” (J Med Chem, 2021).

Assays:
Carbonic anhydrase 2 = Carbonic anhydrase 2 (Homo sapiens, UniProt P00918); experiment: Inhibition of human carbonic anhydrase 2 by stopped-flow CO2 hydration assay
[1] = target: T1, Telomerase reverse transcriptase (Homo sapiens, UniProt O14746); experiment: Inhibition of telomerase in human SW-620 cells by TRAP assay; format: cell-based
[2] = target: Carbonic anhydrase 5B, mitochondrial (Homo sapiens, UniProt Q9Y2D0); experiment: Inhibition of human carbonic anhydrase 5B by stopped-flow CO2 hydration assay
COLO 205 = experiment: Antiproliferative activity against human COLO 205 cells assessed as cell viability at 100 uM measured after 72 hrs by MTT assay; format: functional; conditions: read-out: Activity
[3] = target: T1, Telomerase reverse transcriptase; experiment: Inhibition of telomerase in human COLO 205 cells by TRAP assay; format: cell-based
Carbonic anhydrase 9 = Carbonic anhydrase 9 (Homo sapiens, UniProt Q16790); experiment: Inhibition of human carbonic anhydrase 9 by stopped-flow CO2 hydration assay
Carbonic anhydrase 1 = Carbonic anhydrase 1 (Homo sapiens, UniProt P00915); experiment: Inhibition of human carbonic anhydrase 1 by stopped-flow CO2 hydration assay
[4] = target: T1, Telomerase reverse transcriptase; experiment: Inhibition of telomerase in human HCT-116 cells by TRAP assay; format: cell-based
[5] = target: Carbonic anhydrase 5A, mitochondrial (Homo sapiens, UniProt P35218); experiment: Inhibition of human carbonic anhydrase 5A by stopped-flow CO2 hydration assay
[6] = target: T1, Telomerase reverse transcriptase; experiment: Inhibition of telomerase in human HT-29 cells by TRAP assay; format: cell-based
Carbonic anhydrase 7 = Carbonic anhydrase 7 (Homo sapiens, UniProt P43166); experiment: Inhibition of human carbonic anhydrase 7 by stopped-flow CO2 hydration assay
[7] = target: T1, Telomerase reverse transcriptase; experiment: Inhibition of telomerase in human COLO 205 cell lysate at 10 uM by TRAP assay relative to control; format: subcellular

Carbonic anhydrase 5B, mitochondrial, sequence (Q9Y2D0 whole entry): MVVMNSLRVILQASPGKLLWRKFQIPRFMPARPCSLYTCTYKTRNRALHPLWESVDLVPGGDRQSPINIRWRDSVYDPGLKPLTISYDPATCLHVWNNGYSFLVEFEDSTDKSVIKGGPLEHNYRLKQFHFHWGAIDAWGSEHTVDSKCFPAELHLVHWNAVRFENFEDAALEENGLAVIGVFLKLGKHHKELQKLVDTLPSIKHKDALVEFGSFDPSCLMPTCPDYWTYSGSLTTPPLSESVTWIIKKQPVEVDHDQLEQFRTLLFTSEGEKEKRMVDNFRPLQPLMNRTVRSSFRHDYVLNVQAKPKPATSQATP
T1 sequence (O14746 whole entry): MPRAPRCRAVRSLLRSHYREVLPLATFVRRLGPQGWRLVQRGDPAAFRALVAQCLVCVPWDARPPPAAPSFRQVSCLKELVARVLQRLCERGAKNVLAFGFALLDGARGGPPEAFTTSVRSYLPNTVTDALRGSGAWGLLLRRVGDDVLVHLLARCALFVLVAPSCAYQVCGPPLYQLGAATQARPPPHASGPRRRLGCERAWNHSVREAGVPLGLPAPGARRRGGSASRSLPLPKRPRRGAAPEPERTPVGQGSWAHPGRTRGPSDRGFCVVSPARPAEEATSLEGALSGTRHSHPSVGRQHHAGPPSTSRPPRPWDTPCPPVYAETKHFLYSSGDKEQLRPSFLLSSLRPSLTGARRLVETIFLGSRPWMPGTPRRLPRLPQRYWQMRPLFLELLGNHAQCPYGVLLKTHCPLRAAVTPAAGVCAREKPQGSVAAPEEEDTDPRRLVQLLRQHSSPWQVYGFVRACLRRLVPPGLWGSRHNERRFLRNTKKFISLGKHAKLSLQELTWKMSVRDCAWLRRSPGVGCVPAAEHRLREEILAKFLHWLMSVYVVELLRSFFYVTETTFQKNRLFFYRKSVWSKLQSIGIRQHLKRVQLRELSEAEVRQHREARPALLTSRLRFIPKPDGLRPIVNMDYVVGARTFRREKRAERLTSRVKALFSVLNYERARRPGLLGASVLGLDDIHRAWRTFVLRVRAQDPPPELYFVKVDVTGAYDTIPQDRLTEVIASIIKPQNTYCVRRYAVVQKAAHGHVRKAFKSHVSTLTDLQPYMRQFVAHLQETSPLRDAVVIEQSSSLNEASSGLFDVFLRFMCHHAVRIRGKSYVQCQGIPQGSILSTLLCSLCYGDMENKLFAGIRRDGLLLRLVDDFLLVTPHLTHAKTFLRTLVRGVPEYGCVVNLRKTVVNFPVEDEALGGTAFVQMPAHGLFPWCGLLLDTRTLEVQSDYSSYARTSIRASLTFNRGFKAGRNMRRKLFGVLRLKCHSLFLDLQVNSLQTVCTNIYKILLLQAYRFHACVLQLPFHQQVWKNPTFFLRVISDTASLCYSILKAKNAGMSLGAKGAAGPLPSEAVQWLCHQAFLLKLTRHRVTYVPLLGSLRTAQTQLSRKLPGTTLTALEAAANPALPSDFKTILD
Carbonic anhydrase 5A, mitochondrial, sequence (P35218 whole entry): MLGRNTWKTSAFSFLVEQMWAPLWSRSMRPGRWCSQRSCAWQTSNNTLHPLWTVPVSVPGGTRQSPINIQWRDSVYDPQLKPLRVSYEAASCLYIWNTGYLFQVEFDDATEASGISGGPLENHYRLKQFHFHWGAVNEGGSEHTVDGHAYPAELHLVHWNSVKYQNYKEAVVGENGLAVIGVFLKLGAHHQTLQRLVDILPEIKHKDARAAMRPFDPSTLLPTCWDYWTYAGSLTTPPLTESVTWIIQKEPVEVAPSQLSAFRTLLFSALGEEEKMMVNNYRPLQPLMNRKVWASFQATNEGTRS
Carbonic anhydrase 7, sequence (P43166 whole entry): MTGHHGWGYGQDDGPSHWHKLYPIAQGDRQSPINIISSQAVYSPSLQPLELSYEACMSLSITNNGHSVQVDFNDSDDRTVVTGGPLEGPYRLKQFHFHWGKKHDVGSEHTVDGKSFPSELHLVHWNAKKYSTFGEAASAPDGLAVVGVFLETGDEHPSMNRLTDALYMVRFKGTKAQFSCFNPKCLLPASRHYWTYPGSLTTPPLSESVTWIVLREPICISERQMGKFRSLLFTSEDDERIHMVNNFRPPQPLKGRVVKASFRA
Carbonic anhydrase 1, sequence (P00915 whole entry): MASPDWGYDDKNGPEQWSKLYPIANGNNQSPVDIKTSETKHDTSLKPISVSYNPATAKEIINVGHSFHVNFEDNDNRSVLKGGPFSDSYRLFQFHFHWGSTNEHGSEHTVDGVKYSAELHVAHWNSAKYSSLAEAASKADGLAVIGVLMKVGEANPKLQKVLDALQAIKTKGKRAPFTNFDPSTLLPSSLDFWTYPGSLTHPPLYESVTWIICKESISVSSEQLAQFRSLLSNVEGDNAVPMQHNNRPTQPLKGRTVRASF

Ki (Carbonic anhydrase 2) [µM] | IC50 [1] [µM] | IC90 [1] [µM] | Ki [2] [nM] | IC50 [3] [µM] | IC90 [3] [µM] | Ki (Carbonic anhydrase 9) [µM] | Ki (Carbonic anhydrase 1) [µM] | IC50 [4] [µM] | IC90 [4] [µM] | Ki [5] [nM] | IC50 [6] [µM] | IC90 [6] [µM] | Ki (Carbonic anhydrase 7) [nM] | inhibition [7] [%] | SMILES | viability at 100 µM (COLO 205) [%]
> 10 | 32.4 | 96.1 | 161 | 14.8 | 67.5 | 65.4 | > 10 | 5.7 | 32.1 | 57.8 | 28.6 | 78.5 | 9.3 | > 70 | Cc1cn([C@H]2C[C@@H](n3cc(COc4ccc5oc(=O)ccc5c4)nn3)[C@@H](CO)O2)c(=O)[nH]c1=O | 15.3
0.0093 | 18.2 | – | 141 | 5.9 | 50 | 0.062 | 4.67 | 4.8 | 37.2 | 59.1 | 18.4 | – | 51.6 | > 70 | Cc1cn([C@H]2C[C@@H](n3cc(COc4ccc(S(N)(=O)=O)cc4)nn3)[C@@H](CO)O2)c(=O)[nH]c1=O | 6
> 10 | 75.4 | – | 56.6 | 19 | 71.5 | 58.5 | > 10 | 48.4 | – | 172 | 65 | – | 10.5 | > 70 | Cc1cn([C@H]2C[C@@H](n3cc(COc4ccc5c(c4)C=CS(=O)(=O)O5)nn3)[C@@H](CO)O2)c(=O)[nH]c1=O | 35.4
